The experiment has as its target T1, EphB4 (Homo sapiens, UniProt P54760).
T1 construct: to generate full-length EphB4 containing a Myc-His tag at the C-terminus; expressed in transfected cells; EphB4-CHO)
T1 sequence (P54760 16-987): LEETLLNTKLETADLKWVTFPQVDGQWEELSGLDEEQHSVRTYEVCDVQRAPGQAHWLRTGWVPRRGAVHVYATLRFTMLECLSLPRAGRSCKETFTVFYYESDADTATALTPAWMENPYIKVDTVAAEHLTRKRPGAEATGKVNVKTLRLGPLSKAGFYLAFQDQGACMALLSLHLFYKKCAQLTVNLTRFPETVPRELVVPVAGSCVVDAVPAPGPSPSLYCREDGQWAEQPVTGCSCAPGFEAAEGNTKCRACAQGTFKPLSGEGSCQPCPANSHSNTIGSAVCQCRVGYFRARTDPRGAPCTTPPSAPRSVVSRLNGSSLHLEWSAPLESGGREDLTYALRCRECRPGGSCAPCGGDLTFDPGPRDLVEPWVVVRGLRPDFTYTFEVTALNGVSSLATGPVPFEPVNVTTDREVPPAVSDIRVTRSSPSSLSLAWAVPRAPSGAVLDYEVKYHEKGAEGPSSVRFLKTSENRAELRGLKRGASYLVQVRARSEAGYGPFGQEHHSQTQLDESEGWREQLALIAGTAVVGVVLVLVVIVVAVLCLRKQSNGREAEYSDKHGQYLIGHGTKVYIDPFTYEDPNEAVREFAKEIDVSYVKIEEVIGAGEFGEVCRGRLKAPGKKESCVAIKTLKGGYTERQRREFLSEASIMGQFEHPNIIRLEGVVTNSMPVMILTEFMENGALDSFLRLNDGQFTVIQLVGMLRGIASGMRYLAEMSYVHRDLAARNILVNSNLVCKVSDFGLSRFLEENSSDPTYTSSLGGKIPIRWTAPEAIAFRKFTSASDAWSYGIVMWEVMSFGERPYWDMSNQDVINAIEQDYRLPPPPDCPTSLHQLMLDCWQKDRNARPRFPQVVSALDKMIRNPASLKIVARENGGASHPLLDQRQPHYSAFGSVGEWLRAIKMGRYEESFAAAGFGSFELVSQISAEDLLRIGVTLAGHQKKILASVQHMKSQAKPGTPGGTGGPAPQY
The experiment is described as follows: In vitro EphB4 cell assay (EphB4 phosphorylation in EphB4-CHO cells, sandwich ELISA). It is filed as cell-based. As to conditions: stimulated with clustered ephrin-B2, read-out: IC50 in assay B. As for the experimental part: B) In vitro EphB4 Cell Assay
The assay identifies inhibitors of cellular EphB4 by measuring a decrease in phosphorylation of EphB4 following treatment of cells with compound. The endpoint assay used a sandwich ELISA to detect EphB4 phosphorylation status. Briefly, Myc-tagged EphB4 from treated cell lysate was captured on the ELISA plate via an anti-c-Myc antibody. The phosphorylation status of captured EphB4 was then measured using a generic phosphotyrosine antibody conjugated to HRP via a colourimetric output catalysed by HRP, with level of EphB4 phosphorylation directly proportional to the colour intensity. Absorbance was measured spectrophotometrically at 450 nm.
Full length human EphB4 (Swiss-Prot Acc. No. P54760) was cloned using standard techniques from cDNA prepared from HUVEC using RT-PCR. The cDNA fragment was then sub-cloned into a pcDNA3.1 expression vector containing a Myc-His epitope tag to generate full-length EphB4 containing a Myc-His tag at the C-terminus (Invitrogen Ltd. Paisley, UK). CHO-K^1 cells (LGC Promochem, Teddington, Middlesex, UK, Catalogue No. CCL-61) were maintained in HAM's F12 medium (Sigma-Aldrich Company Ltd, Gillingham, Dorset SP8 4XT, Catalogue No. N4888) containing 10% heat-inactivated foetal calf serum (PAA lab GmbH, Pasching, Austria Catalogue No. PAA-A15-043) and 1% glutamax-1 (Invitrogen Ltd., Catalogue No. 35050-038) at 37° C. with 5% CO2. […]
(An ELISA detects its analyte on a solid surface through an enzyme-linked reagent.)

For orientation: IC50 means the concentration at which inhibition is half-maximal. On to `c1cc(Nc2ccnc(Nc3cc(N4CCOCC4)nc(N4CCOCC4)c3)n2)c2cn[nH]c2c1` [Example 3, N2-(2,6-dimorpholinopyridin-4-yl)-N4-(1H-indazol-4-yl)pyrimidine-2,4-diamine], for which the IC50 stood at 0.026 µM.

Source of the values: US7718653B2, “Pyrimidine derivatives for inhibiting Eph receptors” (AstraZeneca AB, priority 2007, dated 2010).
